Test results: patent US4943574A, “(1H-azol-1-ylmethyl) substituted benzotriazole derivatives and pharmaceutical compositions containing them” (Janssen Pharmaceutica N.V., priority 1989, dated 1990)
Counter-ions that a name gives are not always drawn. Like-named read-outs stand apart in the source and are kept apart here.

Key:
aromatase [1] = target: T1, aromatase (Homo sapiens, UniProt P11511); test: biochemical; details: read-out: IC50-values (concentration of the compound required to obtain 50% inhibition of the estrogen synthesis)
T1 sequence (P11511 1-503): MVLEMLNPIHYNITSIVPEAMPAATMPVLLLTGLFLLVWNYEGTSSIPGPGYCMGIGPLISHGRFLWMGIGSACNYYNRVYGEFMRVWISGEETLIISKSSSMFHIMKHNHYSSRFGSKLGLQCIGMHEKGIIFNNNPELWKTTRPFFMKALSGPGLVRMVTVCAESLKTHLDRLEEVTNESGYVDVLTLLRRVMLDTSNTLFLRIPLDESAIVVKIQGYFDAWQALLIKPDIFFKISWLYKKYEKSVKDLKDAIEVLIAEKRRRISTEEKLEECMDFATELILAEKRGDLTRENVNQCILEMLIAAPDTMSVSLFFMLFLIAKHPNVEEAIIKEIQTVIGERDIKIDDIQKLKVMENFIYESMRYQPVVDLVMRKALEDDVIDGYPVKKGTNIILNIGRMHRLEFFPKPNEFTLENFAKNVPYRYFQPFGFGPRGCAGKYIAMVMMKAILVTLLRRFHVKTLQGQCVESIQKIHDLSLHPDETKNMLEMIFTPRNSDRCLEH
Procedure: Human placental microsomes were diluted in potassium phosphate buffer (0.1M, pH 7.4) to give about 50% conversion of androgens to estrogens (protein content: about 0.5 mg). Four ml human placental microsomes were incubated in a final volume of 5 ml with 0.2 μCi1,2[3H]-androstenedione, 2 μg androstendione and 5 μl of test compound and/or dimethyl sulfoxide (DMSO). […] The reaction was initiated by the addition of androstenedione and proceeded for 30 min at 37° C. During the incubation period, the mixtures were gassed with air. In this assay, aromatization of androstenedione results in the production of [3H]-H2 O which is isolated by extracting the samples with chloroform to remove the free steroid.

aromatase [2] = test: In vivo-inhibition of the aromatase activity (plasma estradiol in PMSG-injected immature female Wistar rats); parameters: species or system rat (immature female Wistar rats)
Procedure: Immature female Wistar rats weighing 120 g were injected subcutaneously with 200 I.U. of pregnant mare's serum gonadotropin (PMSG). […] Control animals received 20% polyethyleneglycol only. Two hours following drug or placebo administration the rats were killed by decapitation and trunk blood was collected on heparine. Plasma estradiol concentrations were measured by standard radio-immunological procedures.

[3] = human placental microsomes, 30 min at 37° C., pH 7.4, 1,2[3H]androstenedione
[4] = 1 mg/kg oral gavage, two hours following administration, PMSG-injected immature female Wistar rats

Row | Structure (SMILES) | IC50 (aromatase [1]; [3]) [nM] | % recovery estradiol (plasma estradiol relative to the controls) (aromatase [2]; [4]) [%] | IC50 (aromatase [1]) [nM] | % recovery estradiol (plasma estradiol relative to the controls) (aromatase [2]; rat, in vivo) [%]
1 | Cn1nnc2ccc(C(c3ccc(F)cc3)n3ccnc3)cc21 (stereo not shown) [Compound 29] | 15.9 | 7 | – | –
2 | CCCCn1nnc2ccc(C(c3ccc(Cl)cc3)n3ccnc3)cc21 (stereo not shown) [Compound 15] | 22.6 | 2 | – | –
3 | CC(C)n1nnc2ccc(Cn3ccnc3)cc21 [Compound 87] | 26.9 | 5 | – | –
4 | CCOn1nnc2ccc(C(c3ccccc3)n3ccnc3)cc21 (stereo not shown) [Compound 4] | 16 | – | – | –
5 | CCCC(c1ccc2nnn(C)c2c1)n1ccnc1 (stereo not shown) [Compound 31] | 34.2 | 8 | – | –
6 | Cn1nnc2ccc(C(c3ccccc3)n3ccnc3)cc21 (stereo not shown) [Compound 7] | 25.7 | 7 | – | –
7 | c1cn(Cc2ccc3nnn(CC4CCCCC4)c3c2)cn1 [Compound 97] | 13.1 | 10 | – | –
8 | CCCCOn1nnc2ccc(Cn3ccnc3)cc21.Cl [Compound 226, 1-butoxy-6-(1H-imidazol-1-ylmethyl)-1H-benzotriazole monohydrochloride] | 6.7 | 19 | – | –
9 | CCCCOn1nnc2ccc(C(c3ccccc3)n3ccnc3)cc21 (stereo not shown) [Compound 6] | 12 | – | – | –
10 | CCCn1nnc2ccc(Cn3ccnc3)cc21 [Compound 89] | 15 | 5 | – | –
11 | Clc1ccc(Cn2nnc3ccc(Cn4ccnc4)cc32)cc1 [Compound 91] | 8.8 | – | – | –
12 | Cn1nnc2ccc(C(c3ccsc3)n3ccnc3)cc21 (stereo not shown) [Compound 69, 6-[(1H-imidazol-1-yl) (3-thienyl)methyl]-1-methyl-1H-benzotriazole] | 29 | 5 | – | –
13 | Cn1nnc2ccc(C(c3cccc(Cl)c3)n3ccnc3)cc21 (stereo not shown) [Compound 28] | 25.3 | 6 | – | –
14 | Cn1nnc2ccc(C(c3ccc(C(F)(F)F)cc3)n3ccnc3)cc21 (stereo not shown) [Compound 55] | 18.8 | 3 | – | –
15 | COc1ccc(C(c2ccc3nnn(C)c3c2)n2ccnc2)cc1 (stereo not shown) [Compound 59] | 18 | – | – | –
16 | c1cn(Cc2ccc3nnn(C4CCCCCC4)c3c2)cn1 [Compound 100] | 14.3 | 3 | – | –
17 | CCC(C)n1nnc2ccc(Cn3ccnc3)cc21 (stereo not shown) [Compound 101] | 17.4 | 7 | – | –
18 | CCn1nnc2ccc(Cn3ccnc3)cc21 [Compound 102] | 31.7 | 2 | – | –
19 | Clc1ccc(C(c2ccc3nnn(-c4ccccc4)c3c2)n2ccnc2)cc1.O=[N+]([O-])O (stereo not shown) [mononitrate] | – | – | 17.6 | –
20 | Cn1nnc2ccc(C(c3cccc(F)c3)n3ccnc3)cc21 (stereo not shown) [Compound 33] | 24.6 | 5 | – | –
21 | Fc1cccc(Cn2nnc3ccc(Cn4ccnc4)cc32)c1 [Compound 99] | 17.8 | 11 | – | –
22 | CC(C)n1nnc2ccc(C(c3ccccc3)n3ccnc3)cc21.O=C(O)C(=O)O (stereo not shown) [Compound 76, 6-[(1H-imidazol-1-yl)phenylmethyl]-1-(1-methylethyl)-1H-benzotriazole ethanedioate(1:1)] | 34.7 | 9 | – | –
23 | Clc1ccc(C(c2ccc3nnn(-c4ccccc4)c3c2)n2ccnc2)cc1.O=[N+]([O-])O (stereo not shown) | – | – | – | 21
24 | CC(C)On1nnc2ccc(C(c3ccccc3)n3ccnc3)cc21 (stereo not shown) [Compound 2] | 16 | 20 | – | –
25 | Cn1nnc2ccc(C(c3ccc(Cl)cc3)n3ccnc3)cc21 (stereo not shown) [Compound 48] | 16.6 | 6 | – | –
26 | c1ccc(CCn2nnc3ccc(Cn4ccnc4)cc32)cc1 [Compound 92] | 8.7 | 15 | – | –
27 | Cn1nnc2ccc(C(c3ccccc3)n3ccnc3)cc21 (stereo not shown) [Compound 90] | 22.7 | 5 | – | –
28 | CCCCn1nnc2ccc(C(c3cccc(Cl)c3)n3ccnc3)cc21 (stereo not shown) [Compound 23] | 7.5 | – | – | –

Now from value to compound, other results behind:

Row | IC50 (aromatase [1]; [3]) [nM] | Structure (SMILES) | % recovery estradiol (plasma estradiol relative to the controls) (aromatase [2]; [4]) [%] | IC50 (aromatase [1]) [nM] | % recovery estradiol (plasma estradiol relative to the controls) (aromatase [2]; rat, in vivo) [%]
29 | 16.3 | c1cn(Cc2ccc3nnn(C4CC5CCC4C5)c3c2)cn1 (stereo not shown) [Compound 103] | 5 | – | –
30 | 14.4 | c1ccc2c(c1)CCC2n1nnc2ccc(Cn3ccnc3)cc21 (stereo not shown) [Compound 115] | 22 | – | –
31 | 7.3 | c1ccc(CCCOn2nnc3ccc(Cn4ccnc4)cc32)cc1 [Compound 207] | 26 | – | –
32 | 26.2 | OCCCn1nnc2ccc(Cn3ccnc3)cc21 [Compound 109] | – | – | –
33 | 11 | c1cncc(COn2nnc3ccc(Cn4ccnc4)cc32)c1 [Compound 196] | – | – | –
34 | 18.8 | Fc1ccc(C(c2ccc3[nH]nnc3c2)n2ccnc2)cc1 (stereo not shown) [Compound 113] | 4 | – | –
35 | 15.2 | c1cn(Cc2ccc3nnn(CC4CC4)c3c2)cn1 [Compound 108] | 3 | – | –
36 | 20 | COCCOn1nnc2ccc(Cn3ccnc3)cc21 [Compound 220, 6-(1H-imidazol-1-ylmethyl)-1-(2-methoxyethoxy)-1H-benzotriazole] | – | – | –
37 | 8 | CCCCCCCOn1nnc2ccc(Cn3ccnc3)cc21 [Compound 206] | – | – | –
38 | 10 | CCOn1nnc2ccc(Cn3ccnc3)cc21.Cl [Compound 225, 1-ethoxy-6-(1H-imidazol-1-ylmethyl)-1H-benzotriazole monohydrochloride] | 19 | – | –
39 | 12.5 | Clc1ccc(C(c2ccc3nnn(C4CCCCC4)c3c2)n2ccnc2)cc1 (stereo not shown) [Compound 117] | 9 | – | –
40 | 24.9 | CC(C)n1nnc2ccc(C(c3ccc(Cl)cc3)n3ccnc3)cc21 (stereo not shown) [Compound 116] | 20 | – | –
41 | 14.3 | c1csc(Cn2nnc3ccc(Cn4ccnc4)cc32)c1 [Compound 111] | 19 | – | –
42 | 7.1 | CCCCCCOn1nnc2ccc(Cn3ccnc3)cc21 [Compound 202] | 21 | – | –
43 | 24.4 | C=CCn1nnc2ccc(Cn3ccnc3)cc21 [Compound 106] | 8 | – | –
44 | 7.6 | CCCCn1nnc2ccc(Cn3ccnc3)cc21 [Compound 147, 1-butyl-6-(1H-imidazol-1-ylmethyl)-1H-benzotriazole] | 21 | – | –
45 | 23.2 | C#CCOn1nnc2ccc(Cn3ccnc3)cc21 [Compound 179] | – | – | –
46 | 7.4 | CCCOn1nnc2ccc(Cn3ccnc3)cc21 [Compound 227, 6-(1H-imidazol-1-ylmethyl)-1-propoxy-1H-benzotriazole monohydrochloride. hemihydrate] | 19 | – | –
47 | 19.8 | c1ccc2c(c1)CCCC2n1nnc2ccc(Cn3ccnc3)cc21 (stereo not shown) [Compound 105] | 14 | – | –
48 | 14.1 | c1cn(Cc2ccc3nnn(C4CCCC4)c3c2)cn1 [Compound 107] | 6 | – | –
49 | 17 | CCCCCCCCCOn1nnc2ccc(Cn3ccnc3)cc21 [Compound 203] | – | – | –
50 | 8.9 | CC(C)CCn1nnc2ccc(C(c3ccc(Cl)cc3)n3ccnc3)cc21 (stereo not shown) [Compound 120] | – | – | –
51 | 18.2 | c1ccc(COn2nnc3ccc(C(c4ccccc4)n4ccnc4)cc32)cc1 (stereo not shown) [Compound 188] | – | – | –
52 | 12 | c1ccc(SCOn2nnc3ccc(Cn4ccnc4)cc32)cc1 [Compound 176] | – | – | –
53 | 23.4 | c1ccc(-c2ccc(COn3nnc4ccc(Cn5ccnc5)cc43)cc2)cc1 [Compound 191] | – | – | –
54 | 5.2 | c1ccc(COn2nnc3ccc(Cn4ccnc4)cc32)cc1 [Compound 228, 6-(1H-imidazol-1-ylmethyl)-1-(phenylmethoxy)-1H-benzotriazole] | – | – | –
55 | 18 | CCOC(=O)COn1nnc2ccc(Cn3ccnc3)cc21 [Compound 198] | – | – | –
56 | 36.2 | Cc1cncn1C(c1ccccc1)c1ccc2nnn(OCc3ccccc3)c2c1 (stereo not shown) [Compound 213] | – | – | –
57 | 11 | c1ccc(CCOn2nnc3ccc(Cn4ccnc4)cc32)cc1 [Compound 208] | – | – | –
58 | 11 | CCC(C)On1nnc2ccc(Cn3ccnc3)cc21 (stereo not shown) [Compound 197] | – | – | –
